conditions: [M+H-H2O]+; instrument: TW; calibrated with polyalanine and drug standards

Row | collision cross section (N2) [Å²] | Structure (SMILES)
1 | 231.7 | CCCCCC(=O)Cc1cc(O)cc(O)c1C(=O)Oc1cc(CC(=O)CCCCC)c(C(=O)O)c(OC)c1 [ARTHONIOIC ACID]
2 | 150.8 | CC1(C)CC2C1CCC1(C)OC1CCC2(C)O (stereo unspecified) [2-HYDROXY-5 (6)EPOXY-TETRAHYDROCARYOPHYLLENE]

Row | Structure (SMILES) | collision cross section (N2) [Å²]
3 | C[C@@H](N)[C@@H](O)c1ccccc1 [1R,2S-PHENYLPROPYLAMINE] | 127.8

same assay, conditions: [M+H]+; instrument: TW; calibrated with polyalanine and drug standards

Row | Structure (SMILES) | collision cross section (N2) [Å²]
4 | NC(=NCCCCCCN=C(N)/N=C(\N)Nc1ccc(Cl)cc1)/N=C(\N)Nc1ccc(Cl)cc1 [CHLORHEXIDINE] | 221.3
5 | Oc1c(Br)cc(Br)c2cccnc12 [BROXYQUINOLINE] | 137.7
6 | CCCCCCCCCc1ccc(OCCOCCOCCOCCOCCOCCOCCOCCOCCO)cc1 [NONOXYNOL-9] | 245.8
7 | CC(C)CCCC1(C)C=Cc2c(O)c3c(c(CCC(C)C)c2O1)OC12C(CC4CC1C(C)(C)OC2(CCC(C)C(=O)O)C4O)C3=O (stereo unspecified) [DECAHYDROGAMBOGIC ACID] | 251
8 | CC[C@H]1OC(=O)[C@H](C)[C@@H](O[C@H]2C[C@@](C)(OC)[C@@H](O)[C@H](C)O2)[C@H](C)[C@@H](O[C@@H]2O[C@H](C)C[C@H](N(C)C)[C@H]2O)[C@](C)(O)C[C@@H](C)CN(C)[C@H](C)[C@@H](O)[C@]1(C)O [AZITHROMYCIN] | 263.5
9 | [O-][n+]1cccc(CO)c1 [MEPIROXOL] | 120.4
10 | C[N+]1([O-])C2CCC1CC(OC(=O)C(CO)c1ccccc1)C2 (stereo unspecified) [ATROPINE OXIDE] | 172.4
11 | CNCCC(Oc1ccc(C(F)(F)F)cc1)c1ccccc1 (stereo unspecified) [FLUOXETINE] | 174.5
12 | C=CC[C@]1(O)CC[C@H]2[C@@H]3CCC4=CC(=O)CCC4=C3C=C[C@@]21C [ALTRENOGEST] | 177
13 | NCC1(CC(=O)O)CCCCC1 [GABAPENTIN] | 138.6
14 | CC(=O)O[C@@H]1C[C@H]2C(C)(C)C(=O)C=C[C@]2(C)[C@H]2CC[C@]3(C)C(=CC(=O)O[C@H]3c3ccoc3)[C@@]21C [DEOXYGEDUNIN] | 206.3
15 | O=C(/C=C/c1ccc(O)c(O)c1)O[C@H](Cc1ccc(O)c(O)c1)C(=O)O [ROSMARINIC ACID] | 169.2
16 | Cc1cc(O)cc(=O)o1 [4-HYDROXY-6-METHYLPYRAN-2-ONE] | 119.8
17 | C[C@]12C=CC(=O)C=C1CC[C@@H]1[C@@H]2CC[C@]2(C)C(=O)CC[C@@H]12 [ANDROSTA-1,4-DIEN-3,17-DIONE] | 168.4
18 | CCCCOc1cc(CC2CNC(=O)N2)ccc1OC (stereo unspecified) [4-(3-BUTOXY-4-METHOXYBENZYL)IMIDAZOLIDIN-2-ONE] | 174
19 | O=C1C=C2CC3(O)COc4c(ccc(O)c4O)C3=C2C=C1O (stereo unspecified) [HEMATEIN] | 162.5

Row | Structure (SMILES) | collision cross section (N2) [Å²]
20 | O=c1cc(-c2ccc(O)cc2)oc2ccc(O)cc12 [6,4'-DIHYDROXYFLAVONE] | 152.7
21 | O=C1C=CC(=C(c2ccc(O)cc2)c2ccc(O)cc2)C=C1 [ROSOLIC ACID] | 169.1
22 | C=C(C)[C@H]1CN[C@H](C(=O)O)[C@H]1CC(=O)O [KAINIC ACID] | 144.2
23 | C=C[C@H](C1=CC(=O)C=CC1=O)c1ccccc1 [S-DALBERGIONE] | 143.6
24 | O=c1cc(-c2ccccc2)oc2cccc(O)c12 [PRIMULETIN] | 147.3
25 | CCCCCCCCNC(C)C(O)c1ccc(SC(C)C)cc1 (stereo unspecified) [SULOCTIDIL] | 197.3
26 | Nc1ccc(S(=O)(=O)c2ccc(N)cc2)cc1 [DAPSONE] | 151.7
27 | COc1cc2c(cc1O)CCNC2C (stereo unspecified) [SALSOLINE] | 145.8
28 | CC(=O)O[C@@H]1C[C@@]2(C)C(CC[C@@H]2C(C)=O)C2CCC3=CC(=O)CC[C@]3(C)C21 (stereo partly specified) [11a-ACETOXYPROGESTERONE] | 190.6
29 | O=C(N/N=C/c1ccc([N+](=O)[O-])o1)c1ccc(O)cc1 [NIFUROXAZIDE] | 154.4
30 | O=c1c(-c2ccc(O)cc2)coc2cc(O)cc(O)c12 [GENISTEIN] | 156.5
31 | O=C(O)c1ccccc1C(=O)Nc1ccc(S(=O)(=O)Nc2nccs2)cc1 [PHTHALYLSULFATHIAZOLE] | 194.9
32 | NC(=O)c1ccc(N)nc1 [6-AMINONICOTINAMIDE] | 125.7
33 | CN1CC[C@@]2(C)c3cc(O)ccc3N(C)[C@@H]12 [ESEROLINE] | 149.1
34 | CC(=O)Nc1ccccc1 [ACETANILIDE] | 125
35 | CCn1cc(C(=O)O)c(=O)c2cc3c(cc21)OCO3 [OXOLINIC ACID] | 149.1

Other lines, results leading:

Row | collision cross section (N2) [Å²] | Structure (SMILES)
36 | 264.2 | CC[C@H]1OC(=O)[C@H](C)[C@@H](O[C@H]2C[C@@](C)(OC)[C@@H](O)[C@H](C)O2)[C@H](C)[C@@H](O[C@@H]2O[C@H](C)C[C@H](N(C)C)[C@H]2O)[C@](C)(OC)C[C@@H](C)C(=O)[C@H](C)[C@@H](O)[C@]1(C)O [CLARITHROMYCIN]
37 | 224.9 | CC(=O)O[C@H]1C[C@@H](OC(C)=O)C(C)(C)C2C[C@@H](OC(C)=O)[C@@]3(C)C4=CC(=O)O[C@@H](c5ccoc5)[C@]4(C)CCC3[C@]21C (stereo partly specified) [DEOXYKHIVORIN]
38 | 220.7 | Cc1nc2sccn2c(=O)c1CCN1CCC(=C(c2ccc(F)cc2)c2ccc(F)cc2)CC1 [RITANSERIN]
39 | 258.1 | CC[C@H]1OC(=O)[C@H](C)[C@@H](O[C@H]2C[C@@](C)(OC)[C@@H](O)[C@H](C)O2)[C@H](C)[C@@H](O[C@@H]2O[C@H](C)C[C@H](N(C)C)[C@H]2O)[C@](C)(O)C[C@@H](C)C(=O)[C@H](C)[C@@H](O)[C@]1(C)O [ERYTHROMYCIN]
40 | 229.9 | CC(=O)OCC(=O)[C@@]12OC(C)(C)O[C@@H]1C[C@H]1[C@@H]3C[C@H](F)C4=CC(=O)C=C[C@]4(C)[C@@]3(F)[C@@H](O)C[C@@]12C [FLUOCINONIDE]
41 | 163 | COc1ccc(-c2cc(=O)c3c(O)cc(OC)cc3o2)cc1 [APIGENIN DIMETHYL ETHER]
42 | 196.7 | C[C@@H]1CN(c2c(F)c(F)c3c(=O)c(C(=O)O)cn(C4CC4)c3c2F)C[C@H](C)N1 [ORBIFLOXACIN]
43 | 152.6 | Cn1c(=O)c2c(ncn2CC(O)CO)n(C)c1=O (stereo unspecified) [DYPHYLLINE]
44 | 128.6 | COc1cc(O)ccc1C(C)=O [ISOPEONOL]
45 | 242.5 | COc1ccc(-c2cc(=O)c3c(O)cc(O[C@@H]4O[C@H](CO[C@@H]5O[C@@H](C)[C@H](O)[C@@H](O)[C@H]5O)[C@@H](O)[C@H](O)[C@H]4O)cc3o2)cc1O [DIOSMIN]
46 | 193.9 | COc1cc2nc(N(C)CCCNC(=O)C3CCCO3)nc(N)c2cc1OC (stereo unspecified) [ALFLUZOSIN]
47 | 146.5 | COc1c2ccoc2c(OC)c2oc(=O)ccc12 [ISOPIMPINELLIN]
48 | 145.4 | N[C@@H](Cc1ccc(O)c(O)c1)C(=O)O [LEVODOPA]
49 | 197.4 | C[C@H]1[C@H](NC(=O)/C(=N\OC(C)(C)C(=O)O)c2csc(N)n2)C(=O)N1S(=O)(=O)O [AZTREONAM]
50 | 143.7 | Cc1c(C(N)=O)cc([N+](=O)[O-])cc1[N+](=O)[O-] [DINITOLMIDE]
51 | 198.2 | C=C1C[C@H]2[C@@H]3C=C(C)C4=CC(=O)CC[C@]4(C)[C@H]3CC[C@]2(C)[C@@]1(OC(C)=O)C(C)=O [MELENGESTROL ACETATE]
52 | 153.6 | C[C@]12CC[C@@H]3c4ccc(O)cc4CC[C@H]3[C@@H]1C[C@H](O)[C@@H]2O [EPIESTRIOL]
53 | 154.6 | CCCCCCOc1ccccc1C(N)=O [EXALAMIDE]
54 | 153.5 | CC1=CCc2c(cc3oc(C)cc(=O)c3c2O)OC1 [PTAEROXYLIN]
55 | 186.6 | COc1ccc(-c2cc(=O)c3c(O)c(OC)c(OC)c(OC)c3o2)cc1OC [DEMETHYLNOBILETIN]
56 | 205.1 | CCC(=O)O[C@]1(C(=O)CCl)[C@@H](C)C[C@H]2[C@@H]3CCC4=CC(=O)C=C[C@]4(C)[C@@]3(F)[C@@H](O)C[C@@]21C [CLOBETASOL PROPIONATE]
57 | 165.4 | COc1c(C)c2c(c(O)c1C/C=C(\C)CCC(=O)O)C(=O)OC2 [MYCOPHENOLIC ACID]
58 | 207.6 | C=C1C2CC[C@@]3(C)[C@H](c4ccoc4)OC(=O)C[C@]13O[C@H]1CC(=O)C(C)(C)[C@H](C(O)C(=O)OC)[C@@]21C (stereo partly specified) [6-HYDROXYANGOLENSIC ACID METHYL ESTER]
59 | 204.6 | C=C1C2CC[C@@]3(C)[C@H](c4ccoc4)OC(=O)C[C@]13O[C@H]1CC(O)C(C)(C)C(CC(=O)OC)[C@@]21C (stereo partly drawn) [3alpha-HYDROXY-3-DEOXYANGOLENSIC ACID METHYL ESTER]
60 | 140.2 | COc1cc(OC)c(C(C)=O)c(O)c1C [METHYLXANTHOXYLIN]
61 | 157.7 | C/C=C1\[C@H]2C=C(C)C[C@]1(N)c1ccc(=O)[nH]c1C2 [HUPERZINE A]
62 | 161 | CCCCOc1ccc(CC(=O)NO)cc1 [BUFEXAMAC]
63 | 192.6 | NC(=O)C1(N2CCCCC2)CCN(CCCC(=O)c2ccc(F)cc2)CC1 [PIPAMPERONE]
64 | 183.1 | CC1=C(C(=O)O)N2C(=O)[C@@H](NC(=O)[C@H](N)c3ccc(O)cc3)[C@H]2SC1 [CEFADROXIL]

same assay, conditions: [M+Na]+; instrument: TW; calibrated with polyalanine and drug standards

Row | collision cross section (N2) [Å²] | Structure (SMILES)
65 | 195.9 | CCCCCCCCCCCCCCCC(=O)OCC(O)CO (stereo unspecified) [1-MONOPALMITIN]
66 | 153.2 | C/C=C(/C(=C/C)c1ccc(O)cc1)c1ccc(O)cc1 [DIENESTROL]

Reference: the C3SDB collision cross section collection
